Measured values published in US5270313A, “Sulfonamides and uses” (Hoffmann-La Roche Inc., priority 1991, dated 1993).

How the values were obtained:
[1] = molecular target: endothelin receptors; assay: Inhibition of endothelin binding to human placenta membranes (125I-endothelin); conditions: concentration required to inhibit the specific binding of 125I-endothelin by 50%, 125I-endothelin 20 pM, 20° C. for 2 hours or 4° C. for 24 hours
Procedure: I. Inhibition of endothelin binding to human placenta membranes (see Life Sci 44:1429 (1989)
Human placenta is homogenized in 5 mM Tris buffer, pH 7.4, which contains 1 mM MgCl2 and 250 mM sucrose. The product of the homogenization is centrifuged at 4° C. for 15 minutes at 3000 g. The supernatant containing the plasma membrane fractions is centrifuged for 30 minutes at 72000 g and the precipitate obtained from, in each case, 10 g of original tissue is suspended in 1 ml of 75 mM Tris buffer, pH 7.4, containing 25 mM MgCl2 and 250 mM sucrose and freeze-dried at -20° C. in 1 ml aliquots.
For the binding assay, the freeze-dried membrane preparations are thawed and, after centrifugation at 20° C. for 10 minutes at 25000 g, re-suspended in assay buffer (50 mM Tris buffer, pH 7.4, containing 25 mM MnCl2, 1 mM EDTA and 0.5% bovine serum albumin). 100 μl of this membrane suspension, containing 70 μg of protein, are incubated with 50 μl of ^125 I-endothelin (specific activity 2200 Ci/mMol) in assay buffer (25000 cpm, final concentration 20 pM) and 100 μl of assay buffer which contains varying concentrations of the test compound. The incubation is carried out at 20° C. for 2 hours or at 4° C. for 24 hours. The separation of free and membrane-bound radioligands is carried out by filtration over a glass fiber filter.
The inhibitory activity of compounds of formula I determined in this test procedure is given in Table 1 as the IC50, that is, as the concentration [μM] which is required to inhibit the specific binding of ^125 I-endothelin by 50%.

[2] = system: endothelin-induced contractions in isolated aorta rings; assay: Inhibition of endothelin-induced contractions in isolated aorta rings of the rat; assay type: cell-based, rat (Wistar-Kyoto); conditions: for Dosage ratio (correcting shift): shift to higher values of the EC50 of endothelin induced by 100 μm of test compound, endothelium removed
Procedure: II. Inhibition of endothelin-induced contractions in isolated aorta rings of the rat
Rings with a thickness of 5 mm were dissected from the thorax aorta of adult Wistar-Kyoto rats. The endothelium was removed by rubbing the internal surface slightly. Each ring was immersed in an isolated bath at 37° C. in 10 ml of Krebs-Henseleit solution while gassing with 95% O2 and 5% CO2. The isometric tension of the rings was measured. The rings were stretched to an initial tension of 3 g. After incubation with the test compound or vehicle for 10 minutes cumulative doses of endothelin-1 were added. The activity of the test compound was determined by calculating the dosage ratio, that is, the correcting shift (shift to higher values) of the EC50 of endothelin induced by 100 μm of test compound, whereby EC50 denotes the endothelin concentration required for a half-maximum contraction. […] The EC50 of endothelin in the absence of test compounds is 0.3 nM.

[3] = system: vasoconstriction; assay: Inhibitory activity on vasoconstriction in vivo in the rat (renal ischemia, renal blood flow); conditions: 10 minutes prior to 45 min renal ischemia, control reduced by 43±4%
Procedure: III. The inhibitory activity of the compounds of formula I on vasoconstriction can be observed in vivo in the rat in the test procedure described hereinafter:
Rats were anaesthetized with Na thiobutabarbital (100 mg/kg i.p.). […] A Doppler probe was placed around the left renal artery and attached to a Doppler measuring device. A renal ischemia was produced by pinching off the left renal artery at its point of emergence for 45 minutes. The test compounds were administered 10 minutes prior to the onset of the ischemia intra-arterially (i.a.) in doses of 5 mg/kg or intraveneously (i.v) in doses of 10 mg/kg. In control experiments, the renal blood flow was reduced by 43±4% in comparison to the pre-ischemic value.

Molecule	IC50 [1]	Dosage ratio (correcting shift) [2]	% Decrease in the renal of blood flow ([3]; i.a., 5 mg/kg)	% Decrease in the renal of blood flow ([3]; i.v., 10 mg/kg)	EC50 ([2]; in the absence of test compounds, half-maximum contraction)
O=S(=O)(Nc1ncnc(OCCO)c1-c1ccc(Cl)cc1)c1ccc(C(F)(F)F)cc1 [Example 1, N-[5-(p-chlorophenyl)-6-(2-hydroxyethoxy)-4-pyrimidinyl]-α,α,α-trifluoro-p-toluenesulfonamide]	5000 nM	30	7%	–	–
COc1ccc(-c2c(NS(=O)(=O)c3ccc(C(C)C)cc3)ncnc2OCCO)cc1 [Example 54, N-[6-(2-hydroxyethoxy)-5-(p-methoxyphenyl)-4-pyrimidinyl]-p-isopropylbenzene-sulfonamide]	3000 nM	21	–	–	–
COc1ccccc1Cc1c(NS(=O)(=O)c2ccc(C(C)C)cc2)ncnc1OCCO [Example 63]	1600 nM	23	–	–	–
COc1ccccc1Cc1c(NS(=O)(=O)c2ccc(C(C)(C)C)cc2)ncnc1OCCO [Example 64, p-t-butyl-N-[6-(2-hydroxyethoxy)-5-(o-methoxy-benzyl)-4-pyrimidinyl]benzenesulfonamide]	2000 nM	19	–	–	–
CSc1ccccc1Cc1c(NS(=O)(=O)c2ccc(C(C)C)cc2)ncnc1OCCO [Example 66]	500 nM	96	–	–	–
Cc1ccc(-c2c(NS(=O)(=O)c3ccc(C(C)C)cc3)ncnc2OCCO)cc1 [Example 83]	700 nM	86	–	29%	–
Cc1ccc(-c2c(NS(=O)(=O)c3ccc(C(C)(C)C)cc3)ncnc2OCCO)cc1 [Example 84, p-tert-butyl-N-[6-(2-hydroxyethoxy)-5-p-tolyl-4-pyrimidinyl]benzenesulfonamide]	1000 nM	106	–	–	–
endothelin: endothelin-1, contractile agonist added in cumulative doses to rat aorta rings [reference compound]	–	–	–	–	0.3 nM
